IC50 data for nine compounds are collected here from US8158640B2, “Tetrahydroquinoline derivatives and a process for preparing the same” (Mitsubishi Tanabe Pharma Corporation, priority 2005, dated 2012).

For the experiment, the target named is T1, CETP (Homo sapiens, UniProt P11597).
T1 construct: from tissue; host or cells: plasma from a healthy volunteer
T1 sequence (P11597 18-493): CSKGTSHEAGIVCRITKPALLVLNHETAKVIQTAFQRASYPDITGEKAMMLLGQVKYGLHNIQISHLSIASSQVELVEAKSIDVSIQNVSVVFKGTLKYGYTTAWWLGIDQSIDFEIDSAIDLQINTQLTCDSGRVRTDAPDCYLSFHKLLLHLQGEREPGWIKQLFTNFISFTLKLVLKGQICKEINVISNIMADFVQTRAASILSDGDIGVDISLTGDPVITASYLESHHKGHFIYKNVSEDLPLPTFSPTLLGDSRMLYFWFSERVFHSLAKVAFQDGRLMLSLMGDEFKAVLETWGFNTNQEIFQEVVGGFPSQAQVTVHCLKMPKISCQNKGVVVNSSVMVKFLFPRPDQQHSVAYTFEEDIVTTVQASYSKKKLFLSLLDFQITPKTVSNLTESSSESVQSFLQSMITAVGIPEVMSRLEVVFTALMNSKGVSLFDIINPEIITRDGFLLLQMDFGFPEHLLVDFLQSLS
The experiment is described as follows: Inhibitory activity against CETP in vitro (fluorescent BODIPY-CE transfer, donor/acceptor microemulsion, human plasma). In kind it is biochemical. The following applies: plasma from a healthy volunteer diluted to 0.64%; preincubation with test solution 37° C. 24 hours, then 3 hours with donor/acceptor microemulsion; fluorescence Ex.550 nm/Em.600 nm; read-out: IC50 (inhibition of CETP activity). As for the experimental part: The inhibitory activity of the compounds of the present invention against CETP was tested in this experiment.
A solution of 1-Palmitoyl-2-oleoyl-sn-glycero-3-phosphocholine (3.5 mg), cholesteryl oleate (3 mg) and triolein (0.7 mg) in chloroform was mixed and lipid was air-dried under nitrogen gas to remove solvent. 1,4-Dioxane (0.25 ml) was then added and the mixture was stirred for dissolution. The resultant lipid solution (0.2 ml) was slowly injected under the surface of Tris-saline-EDTA(TSE) buffer solution [10 mM Tris/HCl (pH 7.4), 0.15M NaCl, 2 mM EDTA] (10 ml) with Hamilton syringe, while sonicating in ice-bath. After 1-hour-sonication in ice-bath, the solution was stored at 4° C.
A solution of egg PC (phosphatidylcholine) (0.33 mg) and BODIPY-CE (0.62 mg) in chloroform was mixed. After removing solvent by air-drying lipid under nitrogen gas, TSE buffer solution (3 ml) was added and the solution was sonicated in ice-bath. This solution was filtered to sterilize through 0.22 μm filter and stored at 4° C.
A test solution was prepared using dimethyl sulfoxide as a solvent. Plasma from a healthy volunteer was diluted to 0.64% with TSE buffer, and to the resultant plasma solution (187 μl) was added a test solution (3 μl) or the solvent alone followed by incubation at 37° C. for 24 hours. After addition of TSE buffer solution (10 μl) containing 5% donor micro-emulsion and 5% acceptor microemulsion, the mixture was incubated at 37° C. for 3 hours. […] CETP activity was defined as the difference between the measurements obtained before incubation and after incubation. The decreasing rate of the difference in the sample was defined as the inhibition rate of CETP activity. IC50 for each sample was calculated from the inhibition rate of CETP activity.
In general, IC50 refers to the midpoint of a concentration-inhibition curve. `CCOC(=O)N1c2ccc(C(F)(F)F)cc2[C@@H](N(Cc2cc(C(F)(F)F)cc(C(F)(F)F)c2)c2ncc(N(C)CCC(=O)O)cn2)C[C@H]1CC` [Example 127]: the IC50 amounted to 0.89 nM.

In the case of `CCOC(=O)N1c2ccc(C(F)(F)F)cc2C(N(Cc2cc(C(F)(F)F)cc(C(F)(F)F)c2)c2ncc(OCCCCC(=O)O)cn2)CC1CC` (stereo not drawn) [Example 198], the IC50 was found to be 0.66 nM. The same measure for `CCOC(=O)N1c2ccc(C(F)(F)F)cc2[C@@H](N(Cc2cc(C(F)(F)F)cc(C(F)(F)F)c2)c2ccc(OCCCC(=O)O)cn2)C[C@H]1CC` [Example 231, (2R,4S)-4-{[3,5-bis(trifluoromethyl)benzyl]-[5-(3-carboxypropoxy)pyridin-2-yl]}amino-2-ethyl-6-trifluoromethyl-3,4-dihydro-2H-quinoline-1-carboxylic acid ethyl ester]: 0.53 nM; for `CCOC(=O)N1c2ccc(C(F)(F)F)cc2[C@@H](N(Cc2cc(C#N)cc(C(F)(F)F)c2)c2ncc(N3CCC(C(=O)O)CC3)cn2)C[C@H]1CC` [Example 235, (2R,4S)-4-{[5-(4-carboxypiperidin-1-yl)pyrimidin-2-yl]-(3-cyano-5-trifluoromethylbenzyl)}amino-2-ethyl-6-trifluoromethyl-3,4-dihydro-2H-quinoline-1-carboxylic acid ethyl ester]: 2.7 nM; for “(2R*,4S*)-4-{[3,5-bis(trifluoromethyl)benzyl]-[(5-morpholin-4-yl)pyrimidin-2-yl]}amino-2-ethyl-6-trifluoromethyl-3,4-dihydro-2H-quinoline-1-carboxylic acid 2-hydroxyethyl ester [Example 174]”: 0.23 nM. Next, “(2R,4S)-4-{[3,5-bis(trifluoromethyl)-benzyl]-(5-carboxypyrimidin-2-yl)}amino-2-ethyl-6-trifluoromethyl-3,4-dihydro-2H-quinoline-1-carboxylic acid ethyl ester [Example 16]”: 4.2 nM.

“(2R,4S)-4-{[3,5-bis(trifluoromethyl)benzyl]-[5-(2-methoxyethoxy)pyrimidin-2-yl]}amino-2-ethyl-6-trifluoromethyl-3,4-dihydro-2H-quinoline-1-carboxylic acid 2-carboxyethyl ester [Example 291]”: the IC50 was determined as 0.32 nM. The same measure for “(2R,4S)-4-{[3,5-bis(trifluoromethyl)benzyl]-[5-(morpholin-4-yl)-pyrimidin-2-yl]}amino-2-ethyl-6-trifluoromethyl-3,4-dihydro-2H-quinoline-1-carboxylic acid ethyl ester [Example 1]”: 0.17 nM. For the compound “(2R,4S)-4-{[3,5-bis(trifluoromethyl)benzyl]-[5-(morpholin-4-yl)pyrimidin-2-yl]}amino-2-ethyl-6-trifluoromethyl-3,4-dihydro-2H-quinoline-1-carboxylic acid 5-carboxypentyl ester [Example 275]”, the IC50 stood at 0.18 nM.
